Results: US20120283302A1, “SCCA-1 PRODUCTION INHIBITOR HAVING A CARBOXAMIDE DERIVATIVE AND/OR A SALT THEREOF AS AN ACTIVE INGREDIENT” (SHISEIDO COMPANY, LTD, priority 2009, published 2012)

What was measured:
Human SCCA1 = assay: SCCA-1 expression-inhibiting effect in cultured human keratinocytes (quantitative PCR, G3PDH internal standard); type: cell-based; settings: 24 hours after addition at different concentrations, vs no-drug negative control, FIG. 1-3
Description: SCCA-1 expression-inhibiting effects of carboxyamide derivatives in cell line:
Human keratinocytes were cultured, and carboxyamide derivatives at different concentrations were added at 60-70% confluency. The carboxyamide derivatives used were the following:
After 24 hours, the RNA was obtained, and then it was subjected to a quantitative PCR analysis by ABI PRISM 7900HT Sequence Detector System (Taqman PE) (Applied Biosystems) with using a primer/probe combination shown below, thereby the amount of SCCA gene expression was measured (using G3PDH as the internal standard). • Human SCCA1 • Forward primer: 5′-GTGCTATCTGGAGTCCT-3′ (SEQ ID NO: 1) • Reverse primer: 5′-CTGTTGTTGCCAGCAA-3′ (SEQ ID NO: 2) • Probe: 5′-CATCACCTACTTCAACT-3′ (SEQ ID NO: 3) • Human G3PDH • Forward primer: 5′-GAAGGTGAAGGTCGGAGTC-3′ (SEQ ID NO: 4) • Reverse primer: 5′-[…]-3′ (SEQ ID NO: 5) • Probe: 5′-[…]-3′ (SEQ ID NO: 6)

SCAA-1 = settings: known from Japanese Patent Application No. 2008-903571; cited from earlier work
SCAA-2 = settings: known from Japanese Patent Application No. 2008-903571; cited from earlier work

Row | SMILES | SCCA-1 gene expression (Human SCCA1) | gene expression-inhibiting effect on SCAA-1 (SCAA-1) | gene expression-inhibiting effect on SCAA-2 (SCAA-2)
1 | O=C1NCCN1CCO [1-(2-hydroxyethyl)-2-imidazolidinone] | significant dose-dependent reduction in SCCA-1 gene expression |  | 
2 | O=C1CCCN1CCO [1-(2-hydroxyethyl)-2-pyrrolidone] | significant dose-dependent reduction in SCCA-1 gene expression |  | 
3 | O=C(O)CCN1CCCCC1 [1-piperidinepropionic acid (1-PP), 1-piperidinepropionic acid] |  | gene expression-inhibiting effect | gene expression-inhibiting effect
4 | NC(=O)NC1NC(=O)NC1=O (stereo not shown) [allantoin] | significant dose-dependent reduction in SCCA-1 gene expression |  | 
5 | O=C1NCCN1 [ethyleneurea] | significant dose-dependent reduction in SCCA-1 gene expression |  | 
6 | NC(N)=O [urea] | significant dose-dependent reduction in SCCA-1 gene expression |  | 
